Measurements: the supplement of paper PMC12420376

Assays:
[1] = tested on: KURAMOCHI; test: cancer cell viability relative to untreated control; higher = less cytotoxic; conditions: 72 h
Protocol: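 KURAMOCHI or OVCAR8 cells were grown in monoculture or in co-culture with WI38 or patient-derived 030F fibroblasts and treated for 72 h with a dose matrix of carboplatin combined with birinapant or vorinostat (doses in nM). Cancer cell viability was measured by CK8/18 immunofluorescence imaging and expressed as % of untreated control, given as mean with SD.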

[2] = tested on: Gem119 (ex vivo spheroids of an HRD-positive high-grade serous ovarian cancer); test: cell viability relative to untreated control (ex vivo patient spheroids); higher = less cytotoxic; conditions: 72 h
Protocol: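 Ex vivo 3D spheroid cultures from dissociated tumours of HGSOC patients (DET3CT platform) were treated for 72 h with dose matrices of carboplatin combined with birinapant or vorinostat (nM). Live (TMRM) and dead (POPO-1) cells were imaged and viability was expressed as % of untreated control.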

O=C(O)C1(C(=O)O)CCC1.[NH2-].[NH2-].[Pt+2] [Carboplatin] + CC[C@H](NC(=O)[C@H](C)NC)C(=O)N1C[C@@H](O)C[C@H]1Cc1c(-c2[nH]c3cc(F)ccc3c2C[C@@H]2C[C@H](O)CN2C(=O)[C@H](CC)NC(=O)[C@H](C)NC)[nH]c2cc(F)ccc12 [Birinapant]
cancer cell viability [%], [1]
Conditions | partner drug concentration 0 nM | partner drug concentration 0.1 nM | partner drug concentration 1 nM | partner drug concentration 10 nM | partner drug concentration 100 nM | partner drug concentration 1000 nM
carboplatin concentration 10 nM, co-cultured fibroblast: 030F | 95.1 | 97.5 | 93.4 | 82.9 | 81.5 | 84.3
carboplatin concentration 10 nM, co-cultured fibroblast: WI38 | 93.7 | 94.4 | 87.7 | 85 | 80.4 | 77.7
carboplatin concentration 10 nM, co-cultured fibroblast: none (monoculture) | 101 | 93.7 | 90.3 | 79.5 | 73.8 | 67.6
carboplatin concentration 100 nM, co-cultured fibroblast: 030F | 95.5 | 92 | 94.7 | 95.6 | 84.5 | 85.6
carboplatin concentration 100 nM, co-cultured fibroblast: WI38 | 91.6 | 88.5 | 90.5 | 98.4 | 86.1 | 82.2
carboplatin concentration 100 nM, co-cultured fibroblast: none (monoculture) | 95.7 | 89.2 | 91.7 | 97.3 | 66.7 | 67.3
carboplatin concentration 1000 nM, co-cultured fibroblast: 030F | 91.6 | 92.2 | 100 | 91.7 | 82.9 | 87.1
carboplatin concentration 1000 nM, co-cultured fibroblast: WI38 | 94.4 | 99.2 | 98.2 | 97.8 | 88.5 | 77.5
carboplatin concentration 1000 nM, co-cultured fibroblast: none (monoculture) | 102 | 95 | 90.7 | 90.3 | 74.3 | 61
carboplatin concentration 1e+05 nM, co-cultured fibroblast: 030F | 44.4 | 50.4 | 60.3 | 52.9 | 40.4 | 54.9
carboplatin concentration 1e+05 nM, co-cultured fibroblast: WI38 | 31.1 | 41.9 | 48 | 43.7 | 36.4 | 44.2
carboplatin concentration 1e+05 nM, co-cultured fibroblast: none (monoculture) | 26.6 | 33.6 | 38.4 | 37.9 | 18.6 | 24.4
carboplatin concentration 10000 nM, co-cultured fibroblast: 030F | 51.7 | 80.8 | 88.2 | 88.8 | 72.4 | 71.7
carboplatin concentration 10000 nM, co-cultured fibroblast: WI38 | 40.7 | 80 | 83.2 | 91.4 | 74.1 | 69.9
carboplatin concentration 10000 nM, co-cultured fibroblast: none (monoculture) | 23.9 | 95.4 | 72.3 | 84.6 | 57.4 | 51.8

cell viability [%], [2]
Conditions | partner drug concentration 0 nM | partner drug concentration 0.1 nM | partner drug concentration 1 nM | partner drug concentration 10 nM | partner drug concentration 100 nM | partner drug concentration 1000 nM
carboplatin concentration 10 nM | – | 83.3 | 107 | 102 | 90.8 | 67.6
carboplatin concentration 100 nM | – | 83.6 | 112 | 74.4 | 90.8 | 66.8
carboplatin concentration 1000 nM | – | 111 | 107 | 100 | 117 | 86
carboplatin concentration 10000 nM | 112 | 96.4 | 72.9 | 116 | 110 | 81.3
carboplatin concentration 100000 nM | 75.9 | 65.3 | 86.1 | 54.4 | 69.5 | 62.6

O=C(O)C1(C(=O)O)CCC1.[NH2-].[NH2-].[Pt+2] [Carboplatin] + O=C(CCCCCCC(=O)Nc1ccccc1)NO [Vorinostat]
cancer cell viability [%], [1]
Conditions | partner drug concentration 0 nM | partner drug concentration 1 nM | partner drug concentration 10 nM | partner drug concentration 100 nM | partner drug concentration 1000 nM | partner drug concentration 10000 nM
carboplatin concentration 10 nM, co-cultured fibroblast: 030F | 95.1 | 107 | 95.5 | 77.5 | 36.9 | 4.67
carboplatin concentration 10 nM, co-cultured fibroblast: WI38 | 93.7 | 107 | 97.6 | 70 | 26.5 | 5.05
carboplatin concentration 10 nM, co-cultured fibroblast: none (monoculture) | 101 | 111 | 101 | 67.6 | 31.1 | -0.479
carboplatin concentration 100 nM, co-cultured fibroblast: 030F | 95.5 | 106 | 102 | 75.9 | 28.8 | 3.53
carboplatin concentration 100 nM, co-cultured fibroblast: WI38 | 91.6 | 101 | 91.2 | 63.2 | 21 | 5.14
carboplatin concentration 100 nM, co-cultured fibroblast: none (monoculture) | 95.7 | 101 | 92.7 | 63.3 | 24.3 | 0.0805
carboplatin concentration 1000 nM, co-cultured fibroblast: 030F | 91.6 | 85.7 | 89.1 | 58.1 | 31.1 | 6.6
carboplatin concentration 1000 nM, co-cultured fibroblast: WI38 | 94.4 | 88.8 | 88.6 | 52 | 18.7 | 5.75
carboplatin concentration 1000 nM, co-cultured fibroblast: none (monoculture) | 102 | 103 | 91.6 | 54.2 | 20.8 | 1.21
carboplatin concentration 1e+05 nM, co-cultured fibroblast: 030F | 44.4 | 47.7 | 47.7 | 38 | 39 | 1.97
carboplatin concentration 1e+05 nM, co-cultured fibroblast: WI38 | 31.1 | 39.3 | 39.4 | 30.1 | 20.6 | 0.366
carboplatin concentration 1e+05 nM, co-cultured fibroblast: none (monoculture) | 26.6 | 37.6 | 37 | 22.8 | 21.3 | -3.77
carboplatin concentration 10000 nM, co-cultured fibroblast: 030F | 51.7 | 72.2 | 71.1 | 55.5 | 45 | 3.59
carboplatin concentration 10000 nM, co-cultured fibroblast: WI38 | 40.7 | 72 | 68 | 46.1 | 28.8 | 4.43
carboplatin concentration 10000 nM, co-cultured fibroblast: none (monoculture) | 23.9 | 80.8 | 62.8 | 49.1 | 27.5 | -0.104

cell viability [%], [2]
Conditions | partner drug concentration 0 nM | partner drug concentration 1 nM | partner drug concentration 10 nM | partner drug concentration 100 nM | partner drug concentration 1000 nM | partner drug concentration 10000 nM
carboplatin concentration 10 nM | 102 | 90 | 102 | 93.8 | 93 | 26.9
carboplatin concentration 100 nM | 124 | 105 | 103 | 118 | 94.6 | 45.7
carboplatin concentration 1000 nM | 99.4 | 110 | 92 | 110 | 92.7 | 30.3
carboplatin concentration 10000 nM | 112 | 93.7 | 96.1 | 70.3 | 100 | 17.2
carboplatin concentration 100000 nM | 75.9 | 50.1 | 81.2 | 44.7 | 58.9 | 9.6
